Source: PubChem BioAssay AID489024 (Sanford-Burnham Center for Chemical Genomics, 2010)
Activity calls are given as the source filed them.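 How the source made its calls: active means compounds whose mean EC50, the dose giving half the maximal reporter activation, is at or below a set limit; inactive means the rest.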

Biological target: CHO-CHOP luciferase reporter, UPR activation, luminescence
Assay: activators of PERK-eIF2a-CHOP UPR arm, confirmation, CHO-CHOP cells, luciferase luminescence (AID 489024);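 further: compounds added alone to reporter cells with no tunicamycin stress co-treatment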

SMILES | EC50
COc1ccc(C(=O)C(CN2CCCC2)c2ccccc2)cc1 (stereo not drawn) | 13.9 µM
CCOC(=O)c1c(C)oc2c1c(C(c1cccnc1)N1CCOCC1)c(O)c1ccccc12 (stereo not drawn) | 16.8 µM
CCOC(=O)c1cnc(-n2nc(C)cc2C)nc1Nc1ccc(N(C)C)cc1 | 16.7 µM
CC1=CC(=O)C(C(C)C)=C/C1=N/OC(=O)c1cccc([N+](=O)[O-])c1 | > 80 µM (inactive)
Cc1ccc(S/C=C\C(=O)c2ccccc2)cc1 | > 80 µM (inactive)
CC(=O)/C(=C/c1ccccc1)C(=O)Nc1ccccc1C | inactive
C/C(=C\c1ccc(N(C)C)cc1)[N+](=O)[O-] | 9.76 µM
Cc1cccc(-n2ncc(Cl)c(Cl)c2=O)c1 | 7.81 µM
O=C(C#Cc1ccccc1)c1cccc([N+](=O)[O-])c1 | 7.41 µM
Cc1ccc(Cc2cnc(NC(=O)/C(C#N)=C/c3ccc(-c4cccc([N+](=O)[O-])c4)o3)s2)cc1 | 14.7 µM
Cc1cc(C)c(C(CC(=O)c2cccs2)C(C#N)C#N)c(C)c1 (stereo not drawn) | 14.2 µM
CCOC(=O)/C(=C\c1cccc(O)c1)c1nc2sc(C)c(C)c2c(=O)[nH]1 | 13 µM
Cn1c(-c2cccc(OCc3ccccc3)c2)nc2c1c(=O)[nH]c(=O)n2Cc1ccccc1 | 13.8 µM
COc1nc(N)nc(NC(=O)c2cccs2)c1N=O | 17.9 µM
O=C(NCc1cccnc1)/C(=C/c1ccc(-c2ccc(Cl)cc2)o1)S(=O)(=O)c1ccccc1 | 6.18 µM
Oc1ccc(/C=N/Nc2ccnc3cc(Cl)ccc23)cc1O | 6.62 µM
O=C1NC(=O)N(c2ccccc2)C(=O)/C1=C\C=C\c1ccccc1 | 4.5 µM
CN(C)S(=O)(=O)c1cccc(NC(=O)CSc2cccc3cccnc23)c1 | 7.59 µM
Cc1cc(C)cc(N2C(=O)NC(=O)/C(=C\c3cccn3-c3ccccc3)C2=O)c1 | 13.9 µM
CCOC(=O)C(=Cc1ccc(-n2cncn2)cc1)C(=O)OCC | 11.4 µM
O=C(Nc1nc(-c2ccccn2)cs1)c1ccc(Br)s1 | 8.23 µM
O=C(Nc1nc2ccc(F)cc2s1)c1ccccn1 | 7.16 µM

SMILES | EC50
COc1ccc(/C=C/c2ccc3cccc(O)c3n2)c(OC)c1OC | 8.23 µM
O=[N+]([O-])c1cc(-c2ncccn2)c([N+](=O)[O-])s1 | 7.51 µM
Cc1cc(N/N=C/c2ccccc2[N+](=O)[O-])nc(-n2nc(C)cc2C)n1 | 7.44 µM
O=C1/C(=C/c2ccc(N3CCOCC3)o2)SC(=Nc2ccccc2)N1CCc1c[nH]c2ccccc12 | 16.6 µM
COc1ccc(N=Cc2c(O)c3ccccc3oc2=O)cc1 | 8.64 µM
CC1=C(/C=C/C(C)=C/C=C/C(C)=C/C(=O)Nc2ccc(O)cc2)C(C)(C)CCC1 | 14.3 µM
CC(C)c1ccc(/C=C(\c2nc3ccccc3[nH]2)S(=O)(=O)c2ccccc2)cc1 | 9.49 µM
CCCCCOc1ccc(N2C(=O)CC(N(O)c3ccccc3)C2=O)cc1 (stereo not drawn) | 12.3 µM
CC1CCCCC1N1CN=C(Nc2nc3ccccc3s2)NC1 (stereo not drawn) | inactive
Cc1ccccc1/C=C/C(=O)c1ccc([N+](=O)[O-])o1 | 9.86 µM
Cc1ccc(/C=C2\CCC3=C2OC(N)=C(C#N)C3c2ccc(C)cc2)cc1 (stereo not drawn) | 4.55 µM
Cc1nc([N+](=O)[O-])c(Br)n1CC(=O)c1ccc(Cl)cc1 | > 80 µM (inactive)
Cc1c(C#N)c(NC(=O)CCl)n(Cc2ccc(F)cc2)c1C | 16 µM
CC(NC(=O)CN(c1cccc(C(F)(F)F)c1)S(=O)(=O)c1ccc(Cl)c([N+](=O)[O-])c1)c1ccccc1 (stereo not drawn) | 8.07 µM
COC(=O)c1cc(=O)n(CCc2ccc(OC)cc2)c(=Nc2ccc(F)c(Cl)c2)s1 | inactive
Cc1ccc(-c2nn3c(C)nnc3s2)cc1NC(=O)c1ccc(-c2ccc(Cl)cc2Cl)o1 | 14 µM
CCOc1ccc(N2C(=O)CC(N(O)c3ccccc3)C2=O)cc1 (stereo not drawn) | 9.63 µM
COC(=O)C1=C(C)N(c2ccc(C)c(C)c2)/C(=C/c2ccco2)C1=O | 8.53 µM
COC(=O)c1c(NC(=O)c2ccc([N+](=O)[O-])o2)sc2c1CCN(C(C)C)C2 | 1.76 µM
Cc1ccc(CS(=O)(=O)c2ncc(Cl)c(C(=O)Nc3nnc(C(C)C)s3)n2)cc1 | > 80 µM (inactive)
COc1ccc(-c2ccc(-c3nc4c(c(=O)[nH]c(=O)n4Cc4ccccc4)n3C)o2)c([N+](=O)[O-])c1 | > 80 µM (inactive)
Cc1ccc(-c2csc3ncnc(Sc4nnc(CN5CCCCCC5=O)o4)c23)cc1 | 17.3 µM

SMILES | EC50
CCOC(=O)c1c(C)oc2c1c(C(c1cccnc1)N1CCCCC1)c(O)c1ccccc12 (stereo not drawn) | 15.2 µM
CC(=O)N(\C=C/C=C/C=C1\Sc2ccccc2C1=O)c1ccccc1 | > 80 µM (inactive)
Cc1ccc(Sc2c([N+](=O)[O-])c(=O)n(C)c3ccccc23)cc1 | > 80 µM (inactive)
O=C(/C=C/c1ccc(O)c(O)c1)c1ccccc1O | 4.64 µM
O=C1/C(=C/c2ccccc2[N+](=O)[O-])COc2ccccc21 | 6.15 µM
Cc1ccc(-c2nc(NC(=O)c3nn(C)cc3[N+](=O)[O-])sc2C)cc1 | 8.48 µM
CN(C)C(=S)N=Nc1[nH]c2ccccc2c1O | 6.88 µM
O=S(=O)(Nc1cccc2cccnc12)c1ccc(S(=O)(=O)N2CCCC2)cc1 | 13.9 µM
Cc1ccc(N2CCN(c3ccc(NCc4nc5ccccc5n4C)cc3)CC2)cc1 | inactive
O=C(Oc1ccccc1/C=C\C(=O)c1cc2ccccc2o1)c1ccccc1 | 12.9 µM
CCCCOc1ccc(N2C(=O)CC(N(O)c3ccccc3)C2=O)cc1 (stereo not drawn) | 7.25 µM
Cc1cccc(OCCN2CSC(=S)N(C)C2)c1 | > 80 µM (inactive)
CC1=C(CC/C(C)=N/NC(N)=S)C(C)(C)CCC1 | 19.8 µM
CCc1cc(C(=O)c2ccc(C)cc2)c(NC(=O)CCl)s1 | 13.5 µM
O=C(/C=C/Sc1ccccc1)c1ccc(Cl)cc1 | 10.6 µM
COC(=O)c1cc(=O)n(Cc2ccco2)c(=Nc2ccc(F)c(Cl)c2)s1 | 16.8 µM
Cc1[nH]c2c(C)cccc2c1CCNC(=O)c1ccc2c(c1[N+](=O)[O-])C(=O)c1ccccc1C2=O | 6.46 µM
CC1=C/C(=N\OC(=O)/C=C/c2ccccc2)C(C)=CC1=O | > 80 µM (inactive)
O=C(O)CC1CCC(=C(Cl)Cl)C1 (stereo not drawn) | > 80 µM (inactive)
O=C(Nc1cccc(-c2nc3cccnc3s2)c1)C1c2ccccc2Oc2ccccc21 | 6.89 µM
Cc1cc(O)c(-c2cc(O)c(C)cc2O)cc1O | > 80 µM (inactive)
CN(c1ccccc1)S(=O)(=O)c1cccc(C(=O)NCCc2ccc(O)c(O)c2)c1 | 7.53 µM

SMILES | EC50
O=C(/C=C/Sc1ccccc1)c1ccccc1 | 6.98 µM
COc1ccc(CCN2CCC(Nc3nc4ccccc4n3Cc3ccc(F)cc3)CC2)cc1 | 9.69 µM
C=CCNC(=S)N/N=C(\C)c1ccccn1 | 2.5 µM
O=C(CSC(=S)N1CCCC1)c1cc(Br)cc(Br)c1O | inactive
O=C(NC(=S)Nc1ccc(NC(=O)c2cccs2)cc1)c1cc2ccccc2o1 | inactive
Nc1c(C(=O)Nc2ccc(S(=O)(=O)N3CCCC3)cc2)sc2nc3ccc(OC(F)(F)F)cc3cc12 | > 80 µM (inactive)
CC(C)(C)C1=CC(=O)C(=O)C(C(C)(C)C)=C1 | 7.59 µM
Cc1ccc(C(C)C)c(OCc2ccc(C(=O)N/N=C/c3ccc(O)c(O)c3)cc2)c1 | > 80 µM (inactive)
COc1ccccc1-c1nnc(Nc2nc3c(OC)cccc3s2)o1 | 2.48 µM
C/C(=N\NC(=O)c1cc2ccccc2cc1O)c1ccccn1 | 3.71 µM
CCOc1ccc(-n2c(C)cc(C(=O)CCl)c2C)cc1 | 6.97 µM
Oc1c(C(Nc2ccccn2)c2ccccn2)ccc2cccnc12 (stereo not drawn) | 12.3 µM
COc1cccc(N=Nc2ccc(O)c3ncccc23)c1 | 12.7 µM
O=C(/C(=N/N=C/c1ccc(O)c(O)c1)c1ccccc1)c1ccccc1 | 7.97 µM
COc1cc(OC)cc(C(=O)NC(=S)Nc2cc3oc4ccccc4c3cc2OC)c1 | inactive
O=C(CCC(=O)Nc1ccc(Cl)cc1Cl)N/N=C/c1ccc([N+](=O)[O-])o1 | 12.9 µM
Oc1ccc(/C=N/N2CCN(C3c4ccccc4-c4ccccc43)CC2)cc1O | inactive
CCOc1ccc2nc(SC3CC(=O)N(c4ccc(C)cc4)C3=O)sc2c1 (stereo not drawn) | > 80 µM (inactive)
Cc1cc(C(=O)CCl)c(C)n1-c1cccc(S(=O)(=O)N2CCOCC2)c1 | 7.44 µM
Cc1ccccc1NC(=O)c1ccc(N/N=C/c2ccccc2O)c([N+](=O)[O-])c1 | 9.06 µM
CCc1nn(-c2cc(Oc3cccc4ccccc34)nc(-c3ccccc3)n2)c(N)c1C#N | inactive
O=C(Cn1ncc(Cl)c(Cl)c1=O)c1ccc2c(c1)OCCO2 | 13.4 µM

SMILES | EC50
O=S(=O)(Nc1cccc2cccnc12)c1ccccc1 | 4.18 µM
O=C1C=CC(=O)C(C2=C3C(=O)N(CCc4ccccc4)CC(=O)N3CCC2)=C1 | 9.95 µM
CCOC(=O)/C(=C\c1ccccc1)C(=O)c1cc(C(C)=O)c(Nc2ccccc2)s1 | 6.37 µM
COc1cc(/C=C2\CC(C(C)(C)C)C/C(=C\c3cc(OC)c(OC)c(OC)c3)C2=O)cc(OC)c1OC (stereo not drawn) | 6.19 µM
CCOC(=O)c1ccc(N=C2C(=S)N(c3ccc(C(=O)OCC)cc3)C(=N)N2/N=C/c2ccccc2)cc1 | > 80 µM (inactive)
COc1ccccc1NC(=O)c1cnc(SCC(=O)NCC2CCCO2)n(C)c1=O (stereo not drawn) | 14.4 µM
c1ccc(CSC2=NNC(c3ccccn3)S2)cc1 (stereo not drawn) | 4.29 µM
O=C(CSc1cccc2cccnc12)N/N=C/c1cccnc1 | 7.64 µM
COc1ccc(-c2csc3nc(-c4ccc(C)cc4)oc(=O)c23)cc1OC | > 80 µM (inactive)
Oc1c(Cl)cc(CN2CCOCC2)c2cccnc12 | 5.93 µM
COc1ccc(C(=O)C(CN2CCOCC2)c2ccccc2)cc1 (stereo not drawn) | inactive
S=C1SCN(CCN2CCOCC2)CN1Cc1ccccc1 | 10.8 µM
O=C(Nc1ccc(-c2nc3ncccc3o2)cc1)c1ccc([N+](=O)[O-])o1 | 1.08 µM
C/C(=N\NC(=O)c1ccc(F)cc1)c1ccccn1 | 8.27 µM
Cc1sc(NC(=O)c2cc(-c3ccc(Cl)cc3)nc3ccccc23)c(C(N)=O)c1C | inactive
CCN(CC)c1ccc(/C=C2\C(=O)N(c3nnc(C)c(=O)[nH]3)N=C2C)cc1 | inactive
Cc1ccc(C(=O)Oc2ccc(Cl)c3cccnc23)cc1[N+](=O)[O-] | inactive
Oc1ccc(CN2CCc3ccccc3C2)c2cccnc12 | 13.8 µM
Cc1cc(N2CCN(c3ccc([N+](=O)[O-])c4cccnc34)CC2)c2ccccc2n1 | inactive
Oc1ccc(/C=N/N(c2ccccc2)c2ccccc2)cc1O | inactive
